Experimental data: patent US20040110253A1, “Method for identifying MHC-presented peptide epitopes for T cells” (priority 2002, published 2004)

Columns and labels:
[1] = tested on: B3K-06 hybridoma; assay: IL-2 production by B3K-06 T cell hybridoma in response to IA^b-peptide presenting APCs; assay type: cell-based, mouse
Excerpt: The hybridoma, B3K-06 was produced from wild-type C57BL/6 mice immunized conventionally with the peptide (Rees et al., 1999, supra). […] Also, as is commonly seen with conventional T cells, the interaction of the αβ TcR of B3K-06 with IA^b-p3K is very sensitive to changes in any of the peptide amino acids exposed on the surface of the IA^b-p3K complex. Mutation of positions Q2, K3, K5, N7 or K8 to alanine virtually eliminates recognition of p3K by B3K-06 (Liu et al., 2002, supra and additional data not shown).
(§1) At the time of the final enrichment, single infected cells binding each of αβTCRs were sorted into individual wells of 96 well culture plates containing fresh SF9 cells in order to prepare clonal viral stocks. These stocks were used to infect fresh SF9 cells which were reanalyzed for binding to the appropriate αβTCR as described above. […] The majority of PCR fragments yielded a single unambiguous peptide sequence. These viruses were used to infect SF9 cells that expressed mouse ICAM and B7.1. The infected cells were used as APCs for either the B3K-06 or YAe-62 hybridoma with IL-2 production being a measure of IA^b-peptide recognition. Viruses expressing IA^b-peptide combinations that neither bound to the αβTCR nor stimulated the T cell hybridomas were used as negative controls and virus producing IA^b-p3K was used as the positive control. Results with a few representative virus clones are shown in FIG. 10A and 10B, and a summary of all of the results are shown in Table 1.

[2] = biological target: T1, IA^b (Mus musculus, UniProt P14434+P14483); settings: Rees et al., 1999; cited from earlier work
T1 sequence (P14434 24-256): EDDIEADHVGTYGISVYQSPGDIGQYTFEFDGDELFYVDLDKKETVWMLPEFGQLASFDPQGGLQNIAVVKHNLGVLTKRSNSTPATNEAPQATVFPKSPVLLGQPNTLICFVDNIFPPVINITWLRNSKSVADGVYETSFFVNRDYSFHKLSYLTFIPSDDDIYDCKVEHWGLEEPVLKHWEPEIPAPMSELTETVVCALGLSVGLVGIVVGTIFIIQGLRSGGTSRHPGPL
T1 sequence (P14483 28-265): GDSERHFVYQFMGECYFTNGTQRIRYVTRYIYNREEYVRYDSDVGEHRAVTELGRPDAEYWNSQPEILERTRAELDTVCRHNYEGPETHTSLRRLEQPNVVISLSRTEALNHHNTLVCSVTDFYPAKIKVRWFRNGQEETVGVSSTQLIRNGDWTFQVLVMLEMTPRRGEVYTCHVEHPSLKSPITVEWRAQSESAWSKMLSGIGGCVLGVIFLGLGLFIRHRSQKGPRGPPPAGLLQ

[3] = tested on: B3K-06 TCR; assay: Binding of fluorescent soluble B3K-06 αβTCR to SF9 cells displaying IA^b-peptide (flow cytometry); design: species or system mouse
Experimental: (§2) Next fluorescent, soluble αβTCR reagents were prepared for use in flow cytometry to detect insect cells displaying the appropriate MHCII/peptide combination. Fluorescent multivalent versions of the soluble αβTCR's of B3K-06 and YAe-62 bound to insect cells displaying the IA^b-p3K, but not a control MHCII-peptide combination (data not shown).
(§3) Insect cells displaying IA^b-p3K bound the αβTCR reagents very heterogeneously, probably due to heterogeneous expression of IA^b-p3K due to variations in the multiplicity of infection and the lack of synchrony in viral infection and expression. […] In this case, there was a direct correlation between the amount of surface IA^b-p3K expressed by an individual insect cell and the amount of αβTCR bound with cells bearing a particular level of IA^b-p3K binding the αβTCRs uniformly (data not shown). Therefore, comparing the two types of staining gave a useful tool to evaluate the relation between peptide sequence and the strength of αβTCR binding (see below).
(§4) A large number of SF9 insect cells were infected at an MOI of about one with baculovirus carrying the IA^b peptide library. After 3-4 days the cells were analyzed with fluorescent B3K-06 or YAe-62 soluble αβTCR, as described above. Fluorescent cells were sorted and cultured with fresh uninfected SF9 cells to create new infected cells for analysis and an enriched viral stock. This process was repeated 3 to 4 times. In each case, when no clear fluorescent population was apparent, the brightest 1% of the infected cells was sorted. In later rounds, the majority of the cells in a clearly distinguishable fluorescent population were sorted. Infected cells binding the B3K-06 αβTCR were apparent only after two rounds of enrichment but eventually yielded a population with uniform binding (data not shown). Infected cells that bound the YAe-62 αβTCR were detectable even with the initial library of viruses and enriched rapidly to yield a population with more heterogeneous levels of binding to the receptor (data not shown).
as §1

[4] = tested on: YAe-62 TCR; assay: Binding of fluorescent soluble YAe-62 αβTCR to SF9 cells displaying IA^b-peptide (flow cytometry); design: species or system mouse
Experimental: as §2, §3, §4, §1

[5] = tested on: YAe-62 hybridoma; assay: IL-2 production by YAe-62 T cell hybridoma in response to IA^b-peptide presenting APCs; assay type: cell-based, mouse
Excerpt: The mouse T cell hybridoma, referred to as YAe-62, was chosen as a representative of broadly reactive T cells present in mice carrying transgenes and gene knockouts that lead to expression of MHC Class II that are almost completely occupied by a single peptide (Ignatowicz et al., 1996, Cell 84:521-529). The T cell was produced by immunization with p3K bound to IA^b in mice that express IA^b covalently linked to Eα, a dominant IA^b binding peptide derived from the MHC Class II IEα chain. YAe-62 responds to IA^b-p3K, but not to APCs lacking MHC Class II or to the IA^b-pEα APCs from the mouse from which it was derived. YAe-62 is also reactive against many cell types bearing IA^b in the absence of p3K. It also responds to APCs from a variety of mice carrying other alleles of IA. The inventors have postulated that this T cell responds mainly to the evolutionarily conserved regions of the IA molecule with less dependence on the peptide than seen with conventional T cells (Marrack et al., 2001, J. Immunol. 167:617-621). […] From the X-ray crystal structure of IA^b (Liu et al., 2002, supra) enough was known about how peptides bind to this MHC molecule to design a strategy in which the major MHC anchor amino acids of the peptide could be held constant and only five surface exposed amino acids need be varied in the library (FIG. 8).
as §1

[6] = tested on: T cell 3DT-52.5; assay: IL-2 production by T cell 3DT-52.5 in response to LKD8 cells plus synthetic peptide; assay type: cell-based, mouse; settings: synthetic peptide 100 ug/ml, D^d expressing Tap deficient cell line, twenty four hours
Excerpt: FIG. 14B is a graph showing IL-2 produced by T cell […] in response to (1) P815 plus a bound unknown self-peptide and 2) LKD8, alone, or in the presence of the library derived peptide, TGPTRWCRL (SEQ ID NO:50), or a peptide derived from the spin protein, AGATRWCRL (SEQ ID NO:51).
DNA from a number of these clones was sequenced through the region encoding the peptide to determine the peptide sequence. Only one sequence was found, a 9mer, TGPTRWCRL (represented by SEQ ID NO:50; the underlined amino acids are in the positions varied in the library). […] A search of the mouse genome for proteins that contained peptides similar to the library peptide yielded a very similar sequence (AGATRWCRL; SEQ ID NO:51) intheprotein, spin(GenBank Accession No. BC011467). The library peptide and the spin peptide were synthesized and tested with a D^d expressing, Tap deficient, cell line for recognition by the original T cell (FIG. 14B). […] In the case of LKD8 the cell line was tested alone or in the presence of 100 ug/ml of the library derived peptide, TGPTRWCRL (SEQ ID NO:50), or a peptide derived from the spin protein, AGATRWCRL (SEQ ID NO:51). After twenty four hours the culture supernatants were assayed for IL-2. Without an added peptide, the D^d on this cell line was not recognized because the Tap deficiency prevents loading of endogenous peptides.

[7] = tested on: T cell 3DT-52.5; assay: IL-2 production by T cell 3DT-52.5 in response to infected SF9 cells expressing D^d tethered to peptide; assay type: cell-based, mouse; settings: infected insect cells expressing D^d bearing the peptide as APCs
Excerpt: FIG. 14A is a graph showing IL-2 produced by T cell 3DT-52.5 in response to ICAM+/B7+ SF9 cells infected with baculovirus expressing D^d tethered to either pHIV or the αβTCR identified peptide, TGPTRWCRL (SEQ ID NO:50).
To screen the library, soluble a αβTCR were produced from a mouse T cell specific for D^d plus an unknown self-peptide (Endres et al., 1983, J Immunol 131:1656-1662). A multimeric, fluorescent version of the αβTCR was produced as described for MHCII specific αβTCRs. SF9 cells, infected with the library at a multiplicity of infection (MOI) of <1, were analyzed for binding of the fluorescent αβTCR (data not shown). Although no clearly fluorescent population of cells was seen, of those with good surface D^d expression, the 1% of the cells with the brightest fluorescence were sorted and cultured with fresh insect cells to expand the virus. This type of enrichment was repeated six times, producing a clear population of infected cells was detected that bound the αβTCR (data not shown). The infected cells were cloned with fresh insect cells to prepare clonal viral stocks. These stocks were re-tested for encoding a D^d-peptide combination that bound the αβTCR.
DNA from a number of these clones was sequenced through the region encoding the peptide to determine the peptide sequence. […]

[8] = biological target: IA^b-p3K displayed on baculovirus-infected SF9 insect cells (mouse; baculovirus); assay: flow cytometry, fluorescent multivalent soluble TCR on infected SF9 cells
[9] = biological target: IA^b-pEα displayed on baculovirus-infected SF9 insect cells (mouse; baculovirus); assay: as above
[10] = biological target: IA^b-… displayed on baculovirus-infected SF9 insect cells (mouse; baculovirus); assay: as above
[11] = biological target: IA^b-… (SEQ ID NO:25) displayed on baculovirus-infected SF9 insect cells (mouse; baculovirus); assay: as above
[12] = biological target: IA^b-… (SEQ ID NO:26) displayed on baculovirus-infected SF9 insect cells (mouse; baculovirus); assay: as above
[13] = IA^b-peptide displayed on baculovirus-infected SF9 cells, fluorescent soluble αβTCR
[14] = insect cells displaying IA^b-peptide

F E A Q K A K A N K A V (FEAQKAKANKAV; synthetic peptide motif) [p3K, positive control]
IL-2 Production (units/ml) ([1]; B3K-06 hybridoma, infected SF9 cells expressing mouse ICAM and B7.1 as APCs): 3500 units/ml
response of B3K-06 to IA^b-expressing APCs plus peptide ([1]; IA^b-expressing APCs, data not shown): responds to IA^b-expressing APCs in the presence, but not in the absence of the peptide
binding of peptide to IA^b [2]: binds well
B3K-06 TCR Binding (% of p3K) [3, 13]: 100.0 % of p3K
binding of B3K-06 αβTCR to IA^b-peptide complex (in words) [3, 14]: bound
YAe-62 TCR Binding (% of p3K) [4, 13]: 100.0 % of p3K
binding of YAe-62 αβTCR to IA^b-peptide complex (in words) [4, 14]: bound
response of YAe-62 to IA^b-peptide APCs ([5]; APCs bearing IA^b-peptide): responds
IL-2 Production (units/ml) ([5]; YAe-62 hybridoma, infected SF9 cells expressing mouse ICAM and B7.1 as APCs): 205 units/ml

TGPTRWCRL (synthetic peptide motif) [9mer D^d library derived peptide identified with the αβTCR of 3DT-52.5]
restoration of the ability of LKD8 cells to stimulate the T cells (IL-2) [6]: restored the ability of the cells to stimulate the T cells
stimulation of IL-2 production from the original T cell donor of the αβTCR [7]: specifically stimulated IL-2 production

soluble αβTCR of B3K-06, fluorescent multivalent version
TCR Binding (% of p3K) [8]: 100 % of p3K
TCR Binding (% of p3K) [9]: 0.4 % of p3K
TCR Binding (% of p3K) [10]: 66.8 % of p3K

soluble αβTCR of YAe-62, fluorescent multivalent version
TCR Binding (% of p3K) [8]: 100 % of p3K
TCR Binding (% of p3K) [11]: 58.3 % of p3K
TCR Binding (% of p3K) [9]: 0.3 % of p3K
TCR Binding (% of p3K) [12]: 54.9 % of p3K
